Experimental data from patent US9381193B2, “Contraceptive methods and compositions” (WASHINGTON UNIVERSITY, priority 2011, dated 2016).

Legend:
FVB/NJ mice [1] = test: Estrous cycles by vaginal smears in DHEA-fed mice; type: in vivo, mouse
Description: To determine the reversibility of DHEA, mice were fed the two higher DHEA diets that prevented normal estrous cycles for two weeks followed by regular rodent chow for two weeks. Estrous cycles and pregnancy rates were recorded.
(§1) Female FVB/NJ mice were obtained from Jackson Laboratories (Bar Harbor, Me., USA). Regular rodent chow was supplemented with DHEA at 0.01%, 0.1% and 0.6% w/w. Three-week-old mice had access to food and water ad libitum. Mice were fed control or DHEA-supplemented chow for two weeks. The Animal Studies Committee at Washington University School of Medicine reviewed and approved all animal experiments. Animals were maintained according to the Guide for the Care and Use of Laboratory Animals provided by the Institute for Laboratory Animal Research.
Vaginal smears were performed daily starting at eight weeks of age, after puberty, and establishment of regular estrous cycles. Vaginal cells were collected in 10 μl of phosphate buffered saline (PBS) and evaluated for stage of estrous by one investigator by light microscopy.

oocytes from rats = conditions: DHEA 1 mg/100 g or 10 mg/100 g body weight, increased with dose and treatment duration; cited from earlier work
FVB/NJ mice [2] = test: Serum hormone concentration in DHEA-fed mice (ELISA); type: in vivo, mouse
Source text: as §1
Control and DHEA-fed mice were superovulated with 10 IU pregnant mare serum gonadotropin (PMSG) by i.p. injection. DHEA, estradiol and testosterone serum concentrations were measured 48 hours later. For progesterone concentrations, mice were given an i.p. injection of 10 IU hCG 48 hours after PMSG and blood was collected 24 hours later. Mice were anesthetized with 50 μl ketamine and xylazine (1:1) and blood was collected by cardiac puncture. Serum was separated by centrifugation and stored at −20° C. ELISA assays were used to determine serum hormone concentrations (Alpco, Salem, N.H., USA).

FVB/NJ mice [3] = test: Ovulation rate after PMSG and hCG in DHEA-fed mice; type: in vivo, mouse
Source text: as §1
COCs were collected following superovulation with PMSG. Ovaries were removed and placed in M2 media (Sigma, St. Louis, Mo., USA). COCs were obtained by rupture of antral follicles with a syringe and needle. To collect denuded germinal vesicle (GV) oocytes, the cumulus cells were removed by gentle pipetting. The oviducts were removed from PMSG- and hCG-primed mice. The ampulla of the oviduct was punctured to release the clutch of ovulated oocytes 24 hr after hCG.

murine ESCs = test: In vitro decidualization of primary murine ESCs (Prp mRNA); type: cell-based, mouse; conditions: 3 days in vitro culture
Source text: (§2) In order to confirm that this is not a side effect of ESC immortalization with telomerase overexpression in this human cell line, the effect of DHEA on decidualization of primary ESC cultures from mouse and human uteri was also investigated. Murine ESCs were isolated from the gravid uterus at 4 days post coitus and cultured in vitro for 3 days to induce decidualization as described in the Methods. […] The human primary ESCs were isolated from uteri following hysterectomy for benign disease as outlined in the Methods and cultured in decidualization media for 9 days.
For in vitro decidualization of ESCs, female mice were sacrificed at 4dpc. Pregnancy was confirmed by flushing dissected uterine horns and ostia with HBSS and observing for presence of blastocysts. Uteri confirmed for pregnancy were cut into 1 mm^3 pieces and incubated in Dulbecco's modified Eagle's Medium:F12 medium (DMEM:F12) without phenol red supplemented with 2 g/liter Collagenase Type I (Gibco) for 60-90 min at 37° C. Tissues were vortexed every 15 min during incubation. Following incubation, the solution was passed through a 40 μm sieve (BD Falcon) and centrifuged at 1100 rpm for 5 min. […]

human primary ESCs = test: In vitro decidualization of human primary ESCs (decidualization marker mRNA); type: cell-based; conditions: 9 days in decidualization media
Source text: as §2
Control samples received 0.1% ethanol vehicle control.

ESC-T cells = test: In vitro decidualization of immortalized human ESC-T cells (decidualization marker mRNA, morphology); type: cell-based; parameters: Lowering of PRL and IGFBP1 mRNA expression vs differentiation media only / Morphological change during decidualization: dose or concentration left out as unconfirmed
Source text: Decidualization in human cells was monitored by measuring the mRNA expression of two decidualization markers, PRL and IGFBP1.
This NADP+ analog inhibits two enzymes in the PPP, G6PD and 6GPDH, which utilize NADP+ and convert it into NADPH.
Two major results of the PPP are the production of ribose 5-phosphate and regeneration of NADPH. Production of ribose 5-phosphate is a central component in the de novo synthesis of ribonucleosides (RNs) and deoxyribonucleosides (DRNs). […] To address this question, ESC-T cultures were used and the differentiation media was supplemented with RNs and DRNs during treatment with PPP inhibitors.
Endometrial tissue was obtained from human uteri after hysterectomy conducted for benign disease or from endometrial biopsies. Informed consent was obtained from each patient before surgery and protocols were approved by the Human Research Protection Office of Washington University (HRPO#07-0949). Tissues were placed in HBSS and transported to the laboratory. hESCs were isolated and cultured as previously described. In vitro decidualization was performed as previously described with several changes. Cells were seeded in 6-well plates at 2×10^5 cells/well in DMEM:F12 without phenol red, supplemented with 2% heat-inactivated charcoal dextran-stripped calf serum (HyClone) and 50 μg/ml penicillin/streptomycin (Cambrex Bio Science). Cells were treated with 1 μM medroxyprogesterone-17-acetate (MPA) (Sigma) and 0.5 mM N^6, 2′-O-Dibutyryladenosine 3′,5′-cyclic monophosphate sodium salt (db-cAMP) (Sigma). Control samples received 0.1% ethanol vehicle control.
Human immortalized ESC (ESC telomerase immortalized, ESC-T), were decidualized in vitro in the presence of 0, 2.5 or 5 mM GlcN for 9 days.

ICR female mice = test: Intrauterine DHEA or 6-AN pellet and pregnancy outcome; type: in vivo, mouse
Description: ICR female mice had either placebo (n=26), DHEA (1.5 mg/60 days)(n=20), or 6-AN pellets (150, 15, 1.5 mcg/60 days)(n=24) placed into the uterine horn after index delivery. Females were then mated and litter size was measured over the following 120 days post pellet. Mice were housed according to the Institutional Animal Care and use Committee and NIH guidelines. Day to first litter, number of litters, number of pups, average pups/litter were recorded. Serum DHEA levels were quantified (Alpco, Salem, N.H.). All pellets (placebo, DHEA, 6-AN) were custom-formulated (Innovative Research, Inc).

C[C@]12CC[C@H](O)CC1=CC[C@@H]1[C@@H]2CC[C@]2(C)C(=O)CC[C@@H]12 [DHEA, dehydroepiandrosterone]
Estrous cycle length (FVB/NJ mice [1]; 0.01% DHEA diet, after two weeks): approximately five days longer than controls | Estrous cycle stage (FVB/NJ mice [1]; 0.1% DHEA and 0.6% DHEA diet): remained in metestrus or diestrus for the entire evaluation period | Percentage of degenerated oocytes (oocytes from rats): ≤ 70% | Increase in DHEA serum levels (FVB/NJ mice [2]; 0.01% DHEA supplementation): 1.9 fold | Serum DHEA (FVB/NJ mice [2]; DHEA diets 0.01%, 0.1%, 0.6%, 48 hours after PMSG): elevated in the DHEA-fed mice in a dose-dependent fashion | Number of ovulated oocytes (FVB/NJ mice [3]; 0.01% DHEA diet): 10.8±2.8 | Number of ovulated oocytes (FVB/NJ mice [3]; 0.1% DHEA diet): 15±1.9 | Number of ovulated oocytes (FVB/NJ mice [3]; 0.6% DHEA diet): 7.1±1.4 | Prp mRNA expression (murine ESCs): decreased upon addition of DHEA in a concentration-dependent manner | Expression of PRL and IGFBP1 (human primary ESCs): decreased in a concentration dependent manner | PRL and IGFBP1 decidualization markers (ESC-T cells; 100 μM DHEA, day 4): drastic decrease | Morphological change during decidualization (ESC-T cells; DHEA): the morphological progression is halted | Lowering of PRL and IGFBP1 mRNA expression vs differentiation media only (ESC-T cells; DHEA, day 3 of in vitro culture): 5 fold | Mean serum levels of DHEA (ICR female mice; DHEA pellet group, controls 0.265): 0.512 ng/mL | Average pups/litter (ICR female mice; DHEA pellet, after 60 days, control 12.3): 10.3 pups/litter | Reduction of average pups/litter size (ICR female mice; DHEA pellet, first litter after placement of the pellet): 55% | Average pups/litter (ICR female mice; DHEA pellet, first litter, control 13.0): 5.9 pups/litter | Average time to first litter (ICR female mice; intrauterine pellet: DHEA 1.5 mg/60 days, 6-AN 150, 15, 1.5 mcg/60 days, controls 27 days): 34 days
